Where a SMILES comes first, the peptide text is derived from it. Bridges are numbered along the chain shown (N, C = ends). The star is where a group is joined. DOTA = O=C(O)CN1CCN(CC(=O)O)CCN(CC(=O)*)CCN(CC(=O)O)CC1; AEEA = NCCOCCOCC(=O)O
How the values were obtained:
[1] = Whole-body PET biodistribution and excretion of tracers in pigs (MIPs); assay type: in vivo, pig
Excerpt: Reflexes, pulse, oxygen saturation, and body temperature were monitored. […] In the present study, only the whole-body static PET/CT scans are presented.

[2] = tested on: Staphylococcus aureus induced osteomyelitis (OM) lesions; assay: Static PET/CT tracer uptake in S. aureus induced osteomyelitis lesions, juvenile pig model; settings: for Standard uptake values (SUV) in OM lesions: static whole-body PET/CT about 1 h after i.v. tracer injection, day 6-7 after S. aureus S54F9 inoculation
Excerpt: (§1) Fifteen domestic pigs, all clinically healthy, specific pathogen-free Danish Landrace Yorkshire cross-bred female pigs aged 8–9 weeks weighing 18.3–24.5 kg, were purchased from local commercial pig farmers. After at least one week of acclimatization, the pigs fasted over-night. Then they were premedicated with s-ketamine (Pfizer, Ballerup, Denmark) and midazolam (B. Braun Medical, Frederiksberg, Denmark) intramuscularly and anesthetized with propofol (B. Braun Medical, Frederiksberg, Denmark) intravenously. Finally, they were inoculated with a well-characterized porcine strain of S. aureus S54F9 (approximately 10,000 CFU/kg body weight) into the femoral artery of the right hind limb to induce OM in that limb, as described elsewhere. […] The pigs were all treated with 30–45 µg/kg buprenorphine (Indivior, Berkshire, United Kingdom) intramuscularly thrice daily from the time before inoculation and until scanning at day 6 and 7 after inoculation. After scanning, pigs were euthanized with an overdose of pentobarbitone (Scan Vet Animal Health, Fredensborg, Denmark) while still under anesthesia. Humane endpoints were: anorexia for more than 24 h, superficial respiration, the inability to stand up, or signs of systemic infection. […] The environment was characterized by a room temperature of 20 °C, relative humidity of 51–55%, 12 h in light/12 h in dark cycles, an exchange of air at least eight times per hour. Pigs were fasted overnight before anesthesia.
(§2) Osteomyelitis was verified by CT imaging, necropsy, histology, and/or bacterial cultivation.
(§3) The average injected activity was a median of 760 MBq (range 348–848 MBq) of [^68Ga]Ga-DOTA-K-A9, corresponding to ~17–46 MBq/kg and median 475 MBq (range 65–500 MBq) of [^68Ga]Ga-DOTA-GSGK-A11, corresponding to ~3–23 MBq/kg. PET was performed median ~60 min (60–61min) after injection of [^68Ga]Ga-DOTA-K-A9 (pigs 4–6, Table 1) and ~62 min (62–62 min) after injection of [^68Ga]Ga-DOTA-GSGK-A11 (pigs 7–8, Table 1) in the jugular vein.
(§4) Fluoride-18 was produced via the ^18O (p,n) ^18F nuclear reaction using a cyclotron. The target content was passed through a QMA-light Sep-Pak (Waters, Hedehusene, Denmark) to trap F-18. The solution was washed with 10 mL sterile water for injection (10 mL) to remove any residual [^18O]H2O and then dried with an argon stream. [^18F]NaF was set free by eluting the QMA Sep-Pak with 10 mL NaHCO3 and 10–20 mL air into the product vial. The average injected activity was as median 184 MBq (range 165–196 MBq), corresponding to ~8–10 MBq/kg. The PET was performed ~57 min (33–78 min) after injection of [^18F]NaF (pigs 9–13, Table 1).
(§5) The average injected activity was median 117 MBq (range 109–120 MBq), corresponding to ~5–6 MBq/kg.
(§6) The average injected activity was as median 178 MBq (range 126–253 MBq), corresponding to ~8–12 MBq/kg. The PET was performed ~72 min (60–126 min, early scan) and 139 min (118–186 min, late scan) after injection of [^68Ga]Ga-DOTA-Siglec-9 (pigs 1–3 and 12–15, Table 1).
(§7) ^18F were produced at the PET Center Aarhus using either a PETtrace 800 series cyclotron (GE Healthcare, Uppsala, Sweden) or a Cyclone 18/18 cyclotron (IBA, Louvain La Neuve, Belgium). [^18F]FDG was produced by a standard procedure applying a GE Healthcare MX Tracerlab synthesizer, Mx cassettes supplied by Rotem Industries (Arava, Israel), and chemical kits supplied by ABX GmbH (Radeberg, Germany). […] The median injected activity was 125 MBq (range 94–497 MBq), corresponding to ~5–24 MBq/kg. The PET was performed ~61 min (50–76 min) after injection of [^18F]FDG (pigs 1–15, Table 1).
(§8) The pigs were scanned at locations; Aalborg and Aarhus PET Centers. […] They were in propofol anesthesia and mechanically ventilated throughout the scan. Reflexes, pulse, oxygen saturation, and body temperature were monitored.

[3] = tested on: S. aureus inoculation abscess / soft tissue infection; assay: PET uptake in infected soft tissue (inguinal inoculation abscess, lymph node) of pigs
Excerpt: as §1, §6, §7, §8

[4] = tested on: vascular adhesion protein 1, VAP-1; settings: cited from earlier work
Excerpt: The PET tracer [^68Ga]Ga-DOTA-Siglec-9 binds to a protein involved in leukocyte extravasations (vascular adhesion protein 1, VAP-1). Only recently, we have analyzed the dynamic data. […] However, the distribution volume for the uptake of soft tissue infections was elevated, concluding the tracer has a role for soft tissue infections ...

[5] = Static PET/CT tracer uptake in S. aureus induced osteomyelitis lesions, juvenile pig model; settings: pig, in vivo, iv, Standard uptake values (SUV) in OM lesions
Excerpt: as §1, §2, §3, §4, §5, §6, §7, §8

[6] = tested on: osteomyelitis lesions; settings: pigs; cited from earlier work
Excerpt: We have previously used ^99mTc-label […] ([^99mTc]Tc-DPD) to examine bone remodeling in pigs. […] We, therefore, moved on to use [^18F]NaF in the present study because [^18F]NaF though acting through similar uptake mechanisms as [^99mTc]Tc-DPD, [^18F]NaF is supposed to have a two-fold higher uptake in bones and a better sensitivity for metastatic osteoblastic metastases.

## [18F-].[Na+] [[^18F]NaF]
[1]; pigs, whole-body PET, maximum intensity projections
  Route of excretion: excreted by the kidneys
[1]; pigs, whole-body PET/CT
  Distribution of the tracer in the body outside OM lesions: distributed to the growth zones of the bones
[2]; pig 9, 4 lesions
  Standard uptake values (SUV) in OM lesions: 9.2–13.6
[2]; pig 10, 3 lesions
  Standard uptake values (SUV) in OM lesions: 15.2–17
[2]; pig 11, 5 lesions
  Standard uptake values (SUV) in OM lesions: 5.7–19.2
[2]; pig 12, 1 lesion
  Standard uptake values (SUV) in OM lesions: 19.8
[2]; pig 13, 2 lesions
  Standard uptake values (SUV) in OM lesions: 7.8–17.6
[2]; static PET, K-A9 9 lesions, GSGK-A11 5, NaF 15, ubiquicidin 12, Siglec-9 19 lesions (early and late images)
  Tracer accumulation in porcine OM lesions (in words): no accumulation

## OC[C@H]1OC(O)[C@H]([18F])[C@@H](O)[C@@H]1O (stereo partly drawn) [[^18F]FDG, [^18F]-fluorodeoxyglucose]
[2]; pig 1, 3 lesions
  Standard uptake values (SUV) in OM lesions: 4–7.3
[2]; pig 2, 4 lesions
  Standard uptake values (SUV) in OM lesions: 2.3–5.9
[2]; pig 3, 5 lesions
  Standard uptake values (SUV) in OM lesions: 2.9–4.5
[2]; pig 4, 2 lesions
  Standard uptake values (SUV) in OM lesions: 10.5–16.3
[2]; pig 5, 3 lesions
  Standard uptake values (SUV) in OM lesions: 3.4–9
[2]; pig 6, 4 lesions
  Standard uptake values (SUV) in OM lesions: 4–9.2
[2]; pig 7, 3 lesions
  Standard uptake values (SUV) in OM lesions: 3–6.4
[2]; pig 8, 2 lesions
  Standard uptake values (SUV) in OM lesions: 2.4–8
[2]; pig 9, 4 lesions
  Standard uptake values (SUV) in OM lesions: 5.4–5.9
[2]; pig 10, 3 lesions
  Standard uptake values (SUV) in OM lesions: 4.4–5.1
[2]; pig 11, 5 lesions
  Standard uptake values (SUV) in OM lesions: 1–3.9
[2]; pig 12, 1 lesion
  Standard uptake values (SUV) in OM lesions: 6.1
[2]; pig 13, 2 lesions
  Standard uptake values (SUV) in OM lesions: 7.8–10.1
[2]; pig 14, 3 lesions
  Standard uptake values (SUV) in OM lesions: 4–7.8
[2]; pig 15, 1 lesion
  Standard uptake values (SUV) in OM lesions: 3.6
[2]; static PET ~61 min after injection, pigs 1-15
  Number of OM lesions in which the tracer accumulated distinguishably: 45 of the 45
[3]; pig 12
  Uptake in hyperplasic medial iliacus lymph node of the infected side compared to the lymph node in the non-infected left hind limb: increased
[3]; pig 12, static images acquired after 60 min, compared to 10-30 min
  Change of activity in the margin of the abscess in the static images: increased slightly

## CC(C)C[C@@H]1NC(=O)CNC(=O)[C@H](CCCNC(=N)N)NC(=O)[C@H](Cc2c[nH]c3ccccc23)NC(=O)[C@H](CO)NC(=O)[C@H](CC(C)C)NC(=O)[C@H](CO)NC(=O)[C@H](CC(C)C)NC(=O)[C@H](CCCNC(=N)N)NC(=O)[C@H](C)NC(=O)[C@@H](NC(=O)COCCOCCNC(=O)CN2CCN(CC(=O)O)CCN(CC(=O)O)CCN(CC(=O)O)CC2)CSSC[C@@H](C(=O)N2CCC[C@H]2C(=O)N[C@@H](CO)C(=O)N[C@@H](CCCCN)C(N)=O)NC(=O)[C@H](CC(C)C)NC(=O)[C@H]([C@@H](C)O)NC1=O [[^68Ga]Ga-DOTA-Siglec-9, metal not drawn] ({DOTA-AEEA}-CARLSLSWRGLTLCPSK-NH2; disulfide 1-14; N-terminus and C-terminus assumed)
[1]; pig, in vivo
  Distribution of the tracer in the body outside OM lesions: accumulated in dorsocaudal parts of both lungs
[4]; pig, in vivo
  Distribution volume for the uptake of soft tissue infections: elevated
  Metabolism of the tracer in vivo: metabolized very quickly
  Uptake in OM: no increased
[4]; pigs, modeled with the rev2TCM (4 k-parameters)
  Kinetics of uptake: reversible kinetics
[2]; pig, in vivo
  Tracer accumulation in porcine OM lesions (in words): no tracer activity
[5]
  SUV: 1.3 SUV
[3]; pig 12, images acquired 10 to 30 min after tracer injection
  Uptake in the margin of an inguinal abscess adjacent to the S. aureus inoculation site: marked
[3]; pig, in vivo
  Change of activity in the margin of the abscess in the static images: decreased

## ^99mTc-label methylene diphosphate [[^99mTc]Tc-DPD]
[6]
  Tracer uptake in the osteomyelitis lesions: did not observe any tracer uptake
